# Experimental data reported in US20240269139A1, “COMPOUNDS FOR TARGETED PROTEIN DEGRADATION OF KINASES” (DANA-FARBER CANCER INSTITUTE, INC., priority 2020, published 2024).
# Like-named read-outs stand apart in the source and are kept apart here.
# What was measured:
# Type in all cases: cell-based
# [1] = target: T1, protein kinases (human kinome) (Homo sapiens, UniProt Q9UIG0); details: BAZ1B (Q9UIG0)
# T1 sequence (Q9UIG0 1-1483): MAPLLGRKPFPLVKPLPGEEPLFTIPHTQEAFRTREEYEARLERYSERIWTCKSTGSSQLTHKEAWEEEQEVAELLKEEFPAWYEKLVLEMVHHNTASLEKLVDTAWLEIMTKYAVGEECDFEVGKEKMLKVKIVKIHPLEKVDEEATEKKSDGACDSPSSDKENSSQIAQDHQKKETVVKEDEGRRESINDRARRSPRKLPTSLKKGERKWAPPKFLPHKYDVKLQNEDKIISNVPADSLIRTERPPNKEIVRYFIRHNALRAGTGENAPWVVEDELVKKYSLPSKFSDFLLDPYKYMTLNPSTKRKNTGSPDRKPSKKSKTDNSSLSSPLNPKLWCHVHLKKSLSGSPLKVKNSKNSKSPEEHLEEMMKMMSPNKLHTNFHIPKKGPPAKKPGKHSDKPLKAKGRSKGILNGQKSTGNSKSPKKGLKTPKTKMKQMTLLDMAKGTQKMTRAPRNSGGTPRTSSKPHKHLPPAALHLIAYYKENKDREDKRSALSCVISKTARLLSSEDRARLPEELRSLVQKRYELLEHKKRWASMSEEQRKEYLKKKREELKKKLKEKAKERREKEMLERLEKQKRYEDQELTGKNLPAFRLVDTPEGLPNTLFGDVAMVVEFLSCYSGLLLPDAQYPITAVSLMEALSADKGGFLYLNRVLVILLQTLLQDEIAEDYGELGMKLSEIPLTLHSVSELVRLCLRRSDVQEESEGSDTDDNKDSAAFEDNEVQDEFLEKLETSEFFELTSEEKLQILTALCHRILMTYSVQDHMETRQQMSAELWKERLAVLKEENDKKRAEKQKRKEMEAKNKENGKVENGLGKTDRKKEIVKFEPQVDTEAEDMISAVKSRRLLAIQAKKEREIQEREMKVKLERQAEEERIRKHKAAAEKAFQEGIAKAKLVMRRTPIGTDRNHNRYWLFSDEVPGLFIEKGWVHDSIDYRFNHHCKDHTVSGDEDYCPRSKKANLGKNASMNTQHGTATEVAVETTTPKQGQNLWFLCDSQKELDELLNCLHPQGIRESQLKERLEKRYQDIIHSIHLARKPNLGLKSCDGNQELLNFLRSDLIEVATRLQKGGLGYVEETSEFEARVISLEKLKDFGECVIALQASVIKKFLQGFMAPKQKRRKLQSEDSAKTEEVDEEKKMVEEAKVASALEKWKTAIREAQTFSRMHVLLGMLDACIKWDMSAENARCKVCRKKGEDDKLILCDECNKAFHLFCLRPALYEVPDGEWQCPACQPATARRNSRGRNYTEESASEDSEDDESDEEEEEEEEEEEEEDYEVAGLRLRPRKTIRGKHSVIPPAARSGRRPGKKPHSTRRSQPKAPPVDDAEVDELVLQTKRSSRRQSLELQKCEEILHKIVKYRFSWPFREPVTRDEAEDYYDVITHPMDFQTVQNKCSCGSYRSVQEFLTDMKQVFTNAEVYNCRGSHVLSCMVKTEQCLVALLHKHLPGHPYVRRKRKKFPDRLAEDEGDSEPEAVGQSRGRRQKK
# [2] = target: protein kinases (human kinome) (Homo sapiens, UniProt P54819); details: AK2 (P54819)
# [3] = target: protein kinases (human kinome) (Homo sapiens, UniProt P49674); details: CSNK1E P49674
# protein kinases (human kinome) (Homo sapiens, UniProt P49674), sequence (P49674 whole entry): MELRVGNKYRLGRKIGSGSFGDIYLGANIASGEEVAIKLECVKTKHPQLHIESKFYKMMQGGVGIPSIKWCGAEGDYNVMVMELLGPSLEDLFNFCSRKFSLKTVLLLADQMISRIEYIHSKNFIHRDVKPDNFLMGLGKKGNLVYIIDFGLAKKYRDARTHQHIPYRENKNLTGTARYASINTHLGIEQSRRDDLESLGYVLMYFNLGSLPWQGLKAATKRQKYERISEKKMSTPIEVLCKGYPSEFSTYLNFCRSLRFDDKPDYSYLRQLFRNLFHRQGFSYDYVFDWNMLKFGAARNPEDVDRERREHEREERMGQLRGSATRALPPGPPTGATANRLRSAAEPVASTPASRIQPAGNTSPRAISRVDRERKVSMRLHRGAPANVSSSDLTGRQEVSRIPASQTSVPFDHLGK
# [4] = target: protein kinases (human kinome) (Homo sapiens, UniProt Q9Y4K4); details: MAP4K5 (Q9Y4K4)
# protein kinases (human kinome) (Homo sapiens, UniProt Q9Y4K4), sequence (Q9Y4K4 whole entry): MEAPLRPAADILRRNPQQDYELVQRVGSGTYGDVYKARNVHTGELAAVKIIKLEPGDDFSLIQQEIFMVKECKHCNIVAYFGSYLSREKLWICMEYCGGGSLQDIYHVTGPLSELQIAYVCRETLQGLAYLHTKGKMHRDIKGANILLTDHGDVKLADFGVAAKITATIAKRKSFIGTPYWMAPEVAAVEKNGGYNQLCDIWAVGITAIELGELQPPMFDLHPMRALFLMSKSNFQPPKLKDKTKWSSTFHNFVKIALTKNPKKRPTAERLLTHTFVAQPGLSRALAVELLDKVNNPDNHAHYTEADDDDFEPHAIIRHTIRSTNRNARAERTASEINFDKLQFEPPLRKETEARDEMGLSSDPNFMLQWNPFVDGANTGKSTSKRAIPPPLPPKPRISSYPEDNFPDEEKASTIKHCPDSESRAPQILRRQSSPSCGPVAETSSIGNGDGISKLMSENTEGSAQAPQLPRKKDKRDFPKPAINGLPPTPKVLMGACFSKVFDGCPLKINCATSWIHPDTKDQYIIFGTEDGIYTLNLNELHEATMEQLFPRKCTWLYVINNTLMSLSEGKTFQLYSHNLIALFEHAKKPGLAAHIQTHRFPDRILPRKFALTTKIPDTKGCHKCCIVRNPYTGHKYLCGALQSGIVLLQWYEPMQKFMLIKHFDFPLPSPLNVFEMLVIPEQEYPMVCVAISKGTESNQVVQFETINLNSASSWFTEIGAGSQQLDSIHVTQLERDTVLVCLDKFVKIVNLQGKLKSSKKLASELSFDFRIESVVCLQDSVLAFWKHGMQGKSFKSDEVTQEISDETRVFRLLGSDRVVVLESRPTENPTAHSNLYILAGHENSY
# [5] = experiment wp107, direction down
compound,measurement,setting,value
CC(=O)c1c(C)c2cnc(Nc3ccc(N4CCN(CCOCCOCCOCCNC(=O)COc5cccc6c5C(=O)N(C5CCC(=O)NC5=O)C6=O)CC4)cn3)nc2n(C2CCCC2)c1=O (stereo not drawn) [BSJ.03.123],logFC,[1]; experiment wp084,−0.3532
same,logFC,[2]; experiment wp084,−0.395
Nc1ncnc2c1c(-c1ccc(Oc3ccccc3)cc1)nn2[C@H]1CC[C@H](N2CCN(CCOCCNC(=O)CNc3cccc4c3C(=O)N(C3CCC(=O)NC3=O)C4=O)CC2)CC1 (stereo partly drawn) [SB1.G.181],logFC,[3]; experiment wp071,−1.189
same,logFC CSNK1E,[3]; experiment wp071,−1.189
"Cc1ccc(NC(=O)c2cccc(C(F)(F)F)c2)cc1N1Cc2cnc(Nc3ccc(N4CCN(Cc5cn(CCCCCOc6cccc7c6C(=O)N(C6CCC(=O)NC6=O)C7=O)nn5)CC4)nc3)nc2N(C)C1=O (stereo not drawn) [DB0646, N-(3-(7-((6-(4-((1-(5-((2-(2,6-Dioxopiperidin-3-yl)-1,3-dioxoisoindolin-4-yl)oxy)pentyl)-1H-1,2,3-triazol-4-yl)methyl)piperazin-1-v)pyridin-3-yl)amino)-1-methyl-2-oxo-1,4-dihydropyrimido[4,5-d]pyrimidin-3(2H)-yl)-4-methylphenyl)-3-(trifluoromethyl)benzamide]",logFC,[4]; experiment wp045,−0.4109
same,logFC,"[4]; experiment wp045, direction down",−0.4109
same,logFC,[4]; experiment wp107,−0.3345
same,logFC,[4]; [5],−0.3345
same,logFC,"[4]; experiment wp160, 8 hr",−0.5009
same,logFC,"[4]; experiment wp160, 8 hr, direction down",−0.5009
Cc1ccc(NC(=O)c2cccc(C(F)(F)F)c2)cc1N1Cc2cnc(Nc3ccc(N4CCN(CCCCC(=O)N[C@H](C(=O)N5C[C@H](O)C[C@H]5C(=O)N[C@@H](C)c5ccc(-c6scnc6C)cc5)C(C)(C)C)CC4)nc3)nc2N(C)C1=O [DB1113],logFC,[4]; experiment wp168,−1.754
same,logFC,"[4]; experiment wp168, direction down",−1.754
CC(C)S(=O)(=O)c1ccccc1Nc1nc(Nc2ccc(N3CCN(CCOCCOCCNC(=O)CNc4cccc5c4C(=O)N(C4CCC(=O)NC4=O)C5=O)CC3)cc2)ncc1Cl (stereo not drawn) [TL12.186],logFC,[3]; experiment wp137,−0.4411
same,logFC CSNK1E,[3]; experiment wp137,−0.4411
Cc1ccc(C(=O)Nc2ccc(CN3CCN(CCCOCCOCCOCCNC(=O)COc4cccc5c4C(=O)N(C4CCC(=O)NC4=O)C5=O)CC3)c(C(F)(F)F)c2)cc1C#Cc1cnc2cccnn12 (stereo not drawn) [SB1.G.187],logFC,[2]; experiment wp056,−0.3691
same,logFC,[4]; experiment wp105,−0.3488
same,logFC,"[4]; experiment wp105, direction down",−0.3488
same,logFC,[4]; experiment wp107,−0.4411
same,logFC,[4]; [5],−0.4411
Nc1ncc(-c2ccc(S(=O)(=O)N(CCCNC(=O)CCOCCOCCOCCOCCOCCNc3cccc4c3C(=O)N(C3CCC(=O)NC3=O)C4=O)C3CC3)cc2)cc1-c1ccc2c(c1)CCNC2=O (stereo not drawn) [WH.10417.099],logFC,[3]; experiment wp056,−1.591
same,logFC CSNK1E,[3]; experiment wp056,−1.591
same,logFC,[3]; experiment wp103,−1.306
same,logFC CSNK1E,[3]; experiment wp103,−1.306
same,logFC,[3]; experiment wp105,−0.8305
same,logFC CSNK1E,[3]; experiment wp105,−0.8305
same,logFC,[3]; experiment wp107,−2.192
same,logFC CSNK1E,[3]; experiment wp107,−2.192
same,logFC,[3]; experiment wp172,−1.164
same,logFC CSNK1E,[3]; experiment wp172,−1.164
"Cc1ncsc1-c1ccc([C@H](C)NC(=O)[C@@H]2C[C@@H](O)CN2C(=O)[C@@H](NC(=O)CCCCCN2CCN(c3ccc(Nc4ncc5scc(-c6cccc(NS(C)(=O)=O)c6)c5n4)cc3)CC2)C(C)(C)C)cc1 [RSS0680, (2S,4R)-1-((S)-3,3-Dimethyl-2-(6-(4-(4-((7-(3-(methylsulfonamido)phenyl)thieno[3,2-d]pyrimidin-2-yl)amino)phenyl)piperazin-1-yl)hexanamido)butanoyl)-4-hydroxy-N—((S)-1-(4-(4-methylthiazol-5yl)phenyl)ethyl)pyrrolidine-2-carboxamide]",logFC,[1]; experiment wp080,−0.4061
CN(C)C(=O)c1cc2cnc(Nc3ccc(N4CCN(CCCCNC(=O)COc5cccc6c5C(=O)N(C5CCC(=O)NC5=O)C6=O)CC4)cn3)nc2n1C1CCCC1 (stereo not drawn) [BSJ.04.132],logFC,[1]; experiment wp084,−0.3222
same,logFC,[2]; experiment wp084,−0.3323
CC(C)(C)c1nc(-c2cccc(NS(=O)(=O)c3c(F)cccc3F)c2F)c(-c2ccnc(NCCOCCNC(=O)CCOCCOCCNc3cccc4c3CN(C3CCC(=O)NC3=O)C4=O)n2)s1 (stereo not drawn) [DD.03.107],logFC,"[1]; experiment wp147, 4 uM",−0.3418
